Reference: PMC5218480 (PLoS ONE, 2017)

Tested on: MV-4-11 cells
Assay: Gene expression microarray analysis (Affymetrix PrimeView) and GSEA
Assay type: cell-based, human
Design: RFU PODN (11730768_x_at) / Fold change /veh PODN (11730768_x_at) / RFU LINC00158 (11744669_a_at) / Fold change /veh LINC00158 (11744669_a_at) / RFU DUSP10 (11751237_a_at) / Fold change /veh DUSP10 (11751237_a_at) / RFU ID3 (11757404_x_at) / Fold change /veh ID3 (11757404_x_at) / RFU PLEKHG5 (11737974_s_at) / Fold change /veh PLEKHG5 (11737974_s_at) / RFU LRRC4B (11730491_at) / Fold change /veh LRRC4B (11730491_at) / RFU GIMAP4 (11747438_a_at) / Fold change /veh GIMAP4 (11747438_a_at) / RFU KRT8 (11758183_x_at) / Fold change /veh KRT8 (11758183_x_at) / RFU CNN1 (11734310_a_at) / Fold change /veh CNN1 (11734310_a_at) / RFU VPS37D (11726825_at) / Fold change /veh VPS37D (11726825_at) / RFU C10orf10 (11716522_x_at) / Fold change /veh C10orf10 (11716522_x_at) / RFU KIR2DL2 /// KIR2DL4 /// KIR2DL5A /// KIR2DL5B /// KIR2DS1 /// KIR2DS2 /// KIR2DS3 /// KIR2DS4 /// KIR3DL3 /// KIR3DL3 /// KIR3DS1 (11738374_at) / Fold change /veh KIR2DL2 /// KIR2DL4 /// KIR2DL5A /// KIR2DL5B /// KIR2DS1 /// KIR2DS2 /// KIR2DS3 /// KIR2DS4 /// KIR3DL3 /// KIR3DL3 /// KIR3DS1 (11738374_at) / RFU C1QL1 (11718748_at) / Fold change /veh C1QL1 (11718748_at) / RFU TMPRSS4 (11747572_a_at) / Fold change /veh TMPRSS4 (11747572_a_at) / RFU HAMP (11756126_x_at) / Fold change /veh HAMP (11756126_x_at) / RFU RNFT2 (11725882_a_at) / Fold change /veh RNFT2 (11725882_a_at) / RFU NR4A2 (11747474_a_at) / Fold change /veh NR4A2 (11747474_a_at) / RFU ABCC12 (11746883_a_at) / Fold change /veh ABCC12 (11746883_a_at) / RFU TMEM136 (11760407_x_at) / Fold change /veh TMEM136 (11760407_x_at) / RFU CLDN22 /// WWC2 (11732394_at) / Fold change /veh CLDN22 /// WWC2 (11732394_at) / RFU HLA-DPB1 (11760878_x_at) / Fold change /veh HLA-DPB1 (11760878_x_at) / RFU SPINT1 (11716480_a_at) / Fold change /veh SPINT1 (11716480_a_at) / RFU GAP43 (11754022_s_at) / Fold change /veh GAP43 (11754022_s_at) / RFU A4GNT (11735810_at) / Fold change /veh A4GNT (11735810_at) / RFU PRB3 (11715151_x_at) / Fold change /veh PRB3 (11715151_x_at) / RFU TUBB4B (11761932_at) / Fold change /veh TUBB4B (11761932_at) / RFU CAPN14 (11732068_a_at) / Fold change /veh CAPN14 (11732068_a_at) / RFU TMCC2 (11721928_a_at) / Fold change /veh TMCC2 (11721928_a_at) / RFU IRGQ (11745062_a_at) / Fold change /veh IRGQ (11745062_a_at) / RFU FAM174B (11720279_a_at) / Fold change /veh FAM174B (11720279_a_at) / RFU TMPRSS4 (11748680_a_at) / Fold change /veh TMPRSS4 (11748680_a_at) / RFU FAM212B (11763350_a_at) / Fold change /veh FAM212B (11763350_a_at) / RFU PLEKHG5 (11743358_a_at) / Fold change /veh PLEKHG5 (11743358_a_at) / RFU ZSCAN30 (11745921_a_at) / Fold change /veh ZSCAN30 (11745921_a_at) / RFU CMKLR1 (11741424_a_at) / Fold change /veh CMKLR1 (11741424_a_at) / RFU LOC101060620 /// MAPK8IP1 (11723275_at) / Fold change /veh LOC101060620 /// MAPK8IP1 (11723275_at) / RFU SPTSSB (11747773_x_at) / Fold change /veh SPTSSB (11747773_x_at) / RFU PRSS12 (11739890_at) / Fold change /veh PRSS12 (11739890_at) / RFU BIN1 (11741810_x_at) / Fold change /veh BIN1 (11741810_x_at) / RFU WNT11 (11732464_a_at) / Fold change /veh WNT11 (11732464_a_at) / RFU C10orf10 (11716521_a_at) / Fold change /veh C10orf10 (11716521_a_at) / RFU C5orf56 (11738089_at) / Fold change /veh C5orf56 (11738089_at) / RFU CYB561 (11721691_x_at) / Fold change /veh CYB561 (11721691_x_at) / RFU ANKRD19P (11752326_a_at) / Fold change /veh ANKRD19P (11752326_a_at) / RFU OR2T12 /// OR2T33 /// OR2T8 (11738714_s_at) / Fold change /veh OR2T12 /// OR2T33 /// OR2T8 (11738714_s_at) / RFU VCAN (11748164_a_at) / Fold change /veh VCAN (11748164_a_at) / RFU JSRP1 (11732532_at) / Fold change /veh JSRP1 (11732532_at) / RFU KRTAP10-11 (11738290_x_at) / Fold change /veh KRTAP10-11 (11738290_x_at) / RFU MYO3A (11730013_a_at) / Fold change /veh MYO3A (11730013_a_at) / RFU EBF3 (11725865_a_at) / Fold change /veh EBF3 (11725865_a_at) / RFU CAMK2N1 (11719241_x_at) / Fold change /veh CAMK2N1 (11719241_x_at) / RFU C5orf56 (11738088_a_at) / Fold change /veh C5orf56 (11738088_a_at) / RFU OLFML3 (11715873_a_at) / Fold change /veh OLFML3 (11715873_a_at) / RFU LOC100653217 /// NTM (11731650_a_at) / Fold change /veh LOC100653217 /// NTM (11731650_a_at) / RFU MAPK11 (11762145_a_at) / Fold change /veh MAPK11 (11762145_a_at) / RFU FIZ1 (11724087_x_at) / Fold change /veh FIZ1 (11724087_x_at) / RFU OASL (11726364_x_at) / Fold change /veh OASL (11726364_x_at) / RFU SOX15 (11748057_x_at) / Fold change /veh SOX15 (11748057_x_at) / RFU CD79A (11719716_a_at) / Fold change /veh CD79A (11719716_a_at) / RFU HIST1H1D (11736915_at) / Fold change /veh HIST1H1D (11736915_at) / RFU CASKIN2 (11723855_a_at) / Fold change /veh CASKIN2 (11723855_a_at) / RFU LOC730098 (11760151_x_at) / Fold change /veh LOC730098 (11760151_x_at) / RFU OR4N2 (11742367_at) / Fold change /veh OR4N2 (11742367_at) / RFU PRRT2 (11749266_a_at) / Fold change /veh PRRT2 (11749266_a_at) / RFU SNX32 (11753110_a_at) / Fold change /veh SNX32 (11753110_a_at) / RFU CDHR5 (11726645_a_at) / Fold change /veh CDHR5 (11726645_a_at) / RFU RCAN1 (11760418_a_at) / Fold change /veh RCAN1 (11760418_a_at) / RFU FAM167A (11723789_a_at) / Fold change /veh FAM167A (11723789_a_at) / RFU FAM26E (11764081_at) / Fold change /veh FAM26E (11764081_at) / RFU ISYNA1 (11749810_s_at) / Fold change /veh ISYNA1 (11749810_s_at) / RFU ACY1 (11761880_at) / Fold change /veh ACY1 (11761880_at) / RFU 11764098_at / Fold change /veh 11764098_at / RFU SAMD14 (11745864_x_at) / Fold change /veh SAMD14 (11745864_x_at) / RFU NPB (11741838_a_at) / Fold change /veh NPB (11741838_a_at) / RFU TMPRSS6 (11731388_a_at) / Fold change /veh TMPRSS6 (11731388_a_at) / RFU KRTAP10-2 (11738614_at) / Fold change /veh KRTAP10-2 (11738614_at) / RFU ARHGAP8 /// PRR5-ARHGAP8 (11727945_x_at) / Fold change /veh ARHGAP8 /// PRR5-ARHGAP8 (11727945_x_at) / RFU KRTAP5-7 /// NADSYN1 (11734609_at) / Fold change /veh KRTAP5-7 /// NADSYN1 (11734609_at) / RFU RASL12 (11751679_a_at) / Fold change /veh RASL12 (11751679_a_at) / RFU CDKN2B (11736163_a_at) / Fold change /veh CDKN2B (11736163_a_at) / RFU PRF1 (11729649_at) / Fold change /veh PRF1 (11729649_at) / RFU, ZNF638 /// ZNF638-IT1 / Fold change vs veh, ZNF638 /// ZNF638-IT1 / RFU, PANK3 / Fold change vs veh, PANK3 / RFU, SH3YL1 / Fold change vs veh, SH3YL1 / RFU, ZEB2 / Fold change vs veh, ZEB2 / RFU, NRIP1 / Fold change vs veh, NRIP1 / RFU, PTTG1IP / Fold change vs veh, PTTG1IP / RFU, CAPN2 / Fold change vs veh, CAPN2 / RFU, MED14 / Fold change vs veh, MED14 / RFU, SNORA58 / Fold change vs veh, SNORA58 / RFU, C1orf63 / Fold change vs veh, C1orf63 / RFU, LRRFIP1 / Fold change vs veh, LRRFIP1 / RFU, NDUFAF7 / Fold change vs veh, NDUFAF7 / RFU, SLC12A2 / Fold change vs veh, SLC12A2 / RFU, IBTK / Fold change vs veh, IBTK / RFU, ESF1 / Fold change vs veh, ESF1 / Fold change vs veh, TMEM50B / RFU, TAOK1 / Fold change vs veh, TAOK1 / RFU, ACBD3 / Fold change vs veh, ACBD3 / RFU, TMA16 / Fold change vs veh, TMA16 / RFU, RWDD3 / Fold change vs veh, RWDD3 / RFU, BCAT1 / Fold change vs veh, BCAT1 / RFU, EDEM3 / Fold change vs veh, EDEM3 / RFU, TMEM33 / Fold change vs veh, TMEM33 / RFU, WDR75 / Fold change vs veh, WDR75 / RFU, AHCTF1 / Fold change vs veh, AHCTF1 / RFU, TFRC / Fold change vs veh, TFRC / RFU, ZDHHC17 / Fold change vs veh, ZDHHC17 / RFU, NOM1 / Fold change vs veh, NOM1 / RFU, ARL8B / Fold change vs veh, ARL8B / RFU, ZBTB11 / Fold change vs veh, ZBTB11 / RFU, TAMM41 / Fold change vs veh, TAMM41 / RFU, KIAA1704 /// LOC100996395 / Fold change vs veh, KIAA1704 /// LOC100996395 / RFU, ING1 / Fold change vs veh, ING1 / RFU, TRMT61B / Fold change vs veh, TRMT61B / RFU, FUBP3 / Fold change vs veh, FUBP3 / RFU, TP53 / Fold change vs veh, TP53 / RFU, TNKS2 / Fold change vs veh, TNKS2 / RFU, ZFP14 / Fold change vs veh, ZFP14 / RFU, ACTR2 / Fold change vs veh, ACTR2 / RFU, PPP3R1 / Fold change vs veh, PPP3R1 / RFU, PIK3R1 / Fold change vs veh, PIK3R1 / RFU, HNRNPA1 / Fold change vs veh, HNRNPA1 / RFU, RNF170 / Fold change vs veh, RNF170 / RFU, ZNF28 / Fold change vs veh, ZNF28 / RFU, RNGTT / Fold change vs veh, RNGTT / RFU, OGT / Fold change vs veh, OGT / RFU, BRD1 / Fold change vs veh, BRD1 / RFU, MARS / Fold change vs veh, MARS / RFU, ZNF655 / Fold change vs veh, ZNF655 / RFU, FAHD1 / Fold change vs veh, FAHD1 / RFU, BDP1 / Fold change vs veh, BDP1 / RFU, LRRCC1 / Fold change vs veh, LRRCC1 / RFU, ARID1A / Fold change vs veh, ARID1A / RFU, ZNF146 / Fold change vs veh, ZNF146 / RFU, ZNF330 / Fold change vs veh, ZNF330 / RFU, GPN3 / Fold change vs veh, GPN3 / RFU, C9orf123 / Fold change vs veh, C9orf123 / RFU, N4BP2L2 / Fold change vs veh, N4BP2L2 / RFU, ARFIP1 / Fold change vs veh, ARFIP1 / RFU, FAM179B / Fold change vs veh, FAM179B / RFU, BCL10 / Fold change vs veh, BCL10 / RFU, UHRF1BP1L / Fold change vs veh, UHRF1BP1L / RFU, BET1 / Fold change vs veh, BET1 / RFU, CNOT2 / Fold change vs veh, CNOT2 / RFU, ZNF268 / Fold change vs veh, ZNF268 / Fold change vs veh, ZNF507 / RFU, DGCR2 / Fold change vs veh, DGCR2 / RFU, WDSUB1 / Fold change vs veh, WDSUB1 / Fold change vs veh, HSP90B1 /// MIR3652 / RFU, ADSS / Fold change vs veh, ADSS / RFU, GK / Fold change vs veh, GK / RFU, ZNF148 / Fold change vs veh, ZNF148 / RFU, TAF9 / Fold change vs veh, TAF9 / RFU, SLC1A5 / Fold change vs veh, SLC1A5 / RFU, SLMO2 / Fold change vs veh, SLMO2 / RFU, ABCC4 / Fold change vs veh, ABCC4 / RFU, LOC101060439 /// RAP1B / Fold change vs veh, LOC101060439 /// RAP1B / RFU, RFX7 / Fold change vs veh, RFX7 / RFU, GTPBP10 / Fold change vs veh, GTPBP10 / RFU, CNEP1R1 / Fold change vs veh, CNEP1R1 / RFU, BIVM-ERCC5 /// ERCC5 / Fold change vs veh, BIVM-ERCC5 /// ERCC5 / RFU, ILF3 / Fold change vs veh, ILF3 / RFU 11762660_at / Fold change /veh 11762660_at / RFU VCAN (11757783_s_at) / Fold change /veh VCAN (11757783_s_at) / RFU DDX43 (11728927_at) / Fold change /veh DDX43 (11728927_at) / RFU KRT8 (11758188_x_at) / Fold change /veh KRT8 (11758188_x_at) / RFU NKD1 (11759106_at) / Fold change /veh NKD1 (11759106_at) / RFU SRD5A1 (11742802_a_at) / Fold change /veh SRD5A1 (11742802_a_at) / RFU TPSAB1 /// TPSB2 (11721975_s_at) / Fold change /veh TPSAB1 /// TPSB2 (11721975_s_at) / RFU GSTM3 (11746129_a_at) / Fold change /veh GSTM3 (11746129_a_at) / RFU IL23R (11737362_x_at) / Fold change /veh IL23R (11737362_x_at) / RFU TMEM51 (11727254_a_at) / Fold change /veh TMEM51 (11727254_a_at) / RFU PIWIL2 (11732686_x_at) / Fold change /veh PIWIL2 (11732686_x_at) / RFU ORM1 (11744905_x_at) / Fold change /veh ORM1 (11744905_x_at) / RFU CCDC152 (11743942_at) / Fold change /veh CCDC152 (11743942_at) / RFU ECM1 (11717891_a_at) / Fold change /veh ECM1 (11717891_a_at) / RFU IL23R (11748794_a_at) / Fold change /veh IL23R (11748794_a_at) / RFU TNFAIP8L3 (11732012_x_at) / Fold change /veh TNFAIP8L3 (11732012_x_at) / RFU MBOAT4 (11741988_at) / Fold change /veh MBOAT4 (11741988_at) / RFU 11764193_at / Fold change /veh 11764193_at / RFU TMEM53 (11763286_at) / Fold change /veh TMEM53 (11763286_at) / RFU MAGEB2 (11727129_at) / Fold change /veh MAGEB2 (11727129_at) / RFU TMEM200A (11744735_a_at) / Fold change /veh TMEM200A (11744735_a_at) / RFU CCDC152 (11751479_a_at) / Fold change /veh CCDC152 (11751479_a_at) / RFU FAM211A (11726209_a_at) / Fold change /veh FAM211A (11726209_a_at) / RFU RGS16 (11746705_a_at) / Fold change /veh RGS16 (11746705_a_at) / RFU VCAN (11755009_s_at) / Fold change /veh VCAN (11755009_s_at) / RFU RHOB (11743442_s_at) / Fold change /veh RHOB (11743442_s_at) / RFU RGS16 (11720943_a_at) / Fold change /veh RGS16 (11720943_a_at) / RFU RGS16 (11720944_at) / Fold change /veh RGS16 (11720944_at) / RFU, VPS4B / Fold change vs veh, VPS4B / RFU, CREB1 / Fold change vs veh, CREB1 / RFU, DNAJC13 / Fold change vs veh, DNAJC13 / RFU, GNAQ / Fold change vs veh, GNAQ / RFU, CDK5R1 / Fold change vs veh, CDK5R1 / RFU, ZRANB3 / Fold change vs veh, ZRANB3 / RFU, CUL4A / Fold change vs veh, CUL4A / RFU, CCNY / Fold change vs veh, CCNY / RFU, UFL1 / Fold change vs veh, UFL1 / RFU, COG3 / Fold change vs veh, COG3 / RFU, DIAPH2 / Fold change vs veh, DIAPH2 / RFU, SKA2 / Fold change vs veh, SKA2 / RFU, AFF3 / Fold change vs veh, AFF3 / RFU, LMF1 / Fold change vs veh, LMF1 / RFU, IPO11 / Fold change vs veh, IPO11 / RFU, DFFB / Fold change vs veh, DFFB / RFU, FOXP1 / Fold change vs veh, FOXP1 / RFU, CARD8 / Fold change vs veh, CARD8 / RFU, STRN3 / Fold change vs veh, STRN3 / RFU, ADK / Fold change vs veh, ADK / RFU, RASSF2 / Fold change vs veh, RASSF2 / RFU, WIPF1 / Fold change vs veh, WIPF1 / RFU, LARP1B / Fold change vs veh, LARP1B / RFU, RASA1 / Fold change vs veh, RASA1 / RFU, RB1 / Fold change vs veh, RB1 / RFU, PPFIA1 / Fold change vs veh, PPFIA1 / RFU, MAT2A / Fold change vs veh, MAT2A / RFU, CCT5 / Fold change vs veh, CCT5 / RFU, WDR92 / Fold change vs veh, WDR92 / RFU, CUX1 / Fold change vs veh, CUX1 / RFU, TTC7A / Fold change vs veh, TTC7A / RFU, TMEM135 / Fold change vs veh, TMEM135 / RFU, DEPTOR / Fold change vs veh, DEPTOR / RFU, CPM / Fold change vs veh, CPM / RFU, DNAJB6 / Fold change vs veh, DNAJB6 / RFU, CACNA2D3 / Fold change vs veh, CACNA2D3 / RFU, DTX4 / Fold change vs veh, DTX4 / RFU, TFCP2 / Fold change vs veh, TFCP2 / RFU, GMCL1 /// GMCL1P1 / Fold change vs veh, GMCL1 /// GMCL1P1 / RFU, AEBP2 / Fold change vs veh, AEBP2 / RFU, SNHG1 /// SNORD22 /// SNORD25 /// SNORD26 /// SNORD27 /// SNORD28 /// SNORD29 /// SNORD31 / Fold change vs veh, SNHG1 /// SNORD22 /// SNORD25 /// SNORD26 /// SNORD27 /// SNORD28 /// SNORD29 /// SNORD31 / Fold change (Aza/veh), C12orf56 (ProbeSet 11735607_a_at) / Fold change (ACY-1035/veh), C12orf56 (ProbeSet 11735607_a_at) / Fold change (Aza/veh), FGFR1OP (ProbeSet 11751329_s_at) / Fold change (ACY-1035/veh), FGFR1OP (ProbeSet 11751329_s_at) / Fold change (Aza/veh), VPS36 (ProbeSet 11739960_a_at) / Fold change (ACY-1035/veh), VPS36 (ProbeSet 11739960_a_at) / RFU SYPL1 (11715823_x_at) / Fold change /veh SYPL1 (11715823_x_at) / RFU IGFBP7 (11715501_s_at) / Fold change /veh IGFBP7 (11715501_s_at) / RFU REEP3 (11722064_at) / Fold change /veh REEP3 (11722064_at) / RFU IGLL1 (11728026_x_at) / Fold change /veh IGLL1 (11728026_x_at): dose or concentration left out as unconfirmed
Details: ProbeSet 11748670_a_at; LIST B

## Nc1ccc(-c2cccs2)cc1NC(=O)c1ccc2c(c1)cc(C1CC1)n2CCN1CCOCC1 [ACY-1035]
  RFU, PIK3R1: 70.67 RFU
